Results on one compound are retold here after ChEMBL document CHEMBL1126488, “A new designed tumor selective daunomycin derivative” (Bioorg Med Chem Lett, 1993).

pIC50: −log10 of the molar value.

Broadly, the pIC50 is the negative decadic logarithm of the IC50, by convention in mol/L. Low readings indicate a high IC50, high ones a low IC50. For orientation: LD50 means the dose expected to kill half of the subjects tested. Read a low LD50 as greater toxicity.

Series [1] has as its system SK-MEL-28. As to the kind of experiment: Cytotoxicity of compound was tested against SK-Mel-28 cell line (melanoma) after incubation for 24 hour. It counts as functional, cell-based. To be noted: Homo sapiens, SK-MEL-28, 24 h.
Series [2] concerns NHDF. As to the kind of experiment: Cytotoxicity of compound was tested against NHDF cell line (norm human dermal fibroblast) after incubation for 24 hour. The series is classed as functional, cell-based.
Series [3] relates to MCF7. Briefly: Cytotoxicity of compound was tested against MCF-7 cell line (breast carcinoma) after incubation for 72 hour. It counts as functional, cell-based. To be noted: Homo sapiens, MCF7, 72 h.
Series [4] has as its system MCF7. Briefly: Cytotoxicity of compound was tested against MCF-7 cell line (breast carcinoma) after incubation for 24 hour. It counts as functional, cell-based. The note with it: Homo sapiens, MCF7, 24 h.
Series [5] concerns CAPAN-1. Briefly: Cytotoxicity of compound was tested against Capan-1 cell line (pancreatic carcinoma) after incubation for 24 hour. The series is classed as functional, cell-based. The note with it: Homo sapiens, CAPAN-1, 24 h.
Series [6] concerns CAPAN-1. As to the kind of experiment: Cytotoxicity of compound was tested against […] cell line (pancreatic carcinoma) after incubation for 72 hour. To be noted: Homo sapiens, CAPAN-1, 72 h. The series is classed as functional, cell-based.
For series [7], the system named is HMEC. Briefly: Cytotoxicity of compound was tested against HMEC cell line (human mamm epithelial cells) after incubation for 24 hour. It counts as functional, cell-based.
Series [8] concerns OVCAR-3. As to the kind of experiment: Cytotoxicity of compound was tested against Ovcar-3 cell line (ovarian carcinoma) after incubation for 24 hour. The series is classed as functional, cell-based. The note with it: Homo sapiens, OVCAR-3, 24 h.
Series [9] has as its system CHO. Briefly: Cytotoxicity of compound was tested against CHO cell line (Chinese hamster ovary) after incubation for 24 hour. It counts as functional, cell-based. The note with it: Cricetulus griseus.
The test system of series [10] is HT-29. As to the kind of experiment: Cytotoxicity of compound was tested against HT-29 cell line (colon carcinoma) after incubation for 72 hour. It counts as functional, cell-based. To be noted: Homo sapiens, HT-29, 72 h.
Series [11] has as its system OVCAR-3. Briefly: Cytotoxicity of compound was tested against Ovcar-3 cell line (ovarian carcinoma) after incubation for 72 hour. It counts as functional, cell-based. The note with it: Homo sapiens, OVCAR-3, 72 h.
The test system of series [12] is CHO. As to the kind of experiment: Cytotoxicity of compound was tested against CHO cell line (Chinese hamster ovary) after incubation for 72 hour. It counts as functional, cell-based. The note with it: Cricetulus griseus.
The next series concerns UCLA P-3. Briefly: Cytotoxicity of compound was tested against UCLA P-3 cell line (lung carcinoma) after incubation for 24 hour. It counts as functional, cell-based. To be noted: Homo sapiens, UCLA P-3, 24 h.
Series [13] has as its system NHDF. As to the kind of experiment: Cytotoxicity of compound was tested against NHDF cell line (norm human dermal fibroblast) after incubation for 72 hour. The series is classed as functional, cell-based.
Series [14] concerns P388. As to the kind of experiment: Cytotoxicity of compound was tested against P-388 cell line (mouse leukemia) after incubation for 72 hour. The series is classed as functional, cell-based. To be noted: P388, 72 h.
For series [15], the system named is HT-29. Briefly: Cytotoxicity of compound was tested against HT-29 cell line (colon carcinoma) after incubation for 24 hour. The series is classed as functional, cell-based. The note with it: Homo sapiens, HT-29, 24 h.
A further series has as its system MOLT-4. Briefly: Cytotoxicity of compound was tested against Molt-4 cell line (T-cell leukemia) after incubation for 24 hour. The series is classed as functional, cell-based. The note with it: Homo sapiens, MOLT-4, 24 h.
Series [16] deals with P388. As to the kind of experiment: Cytotoxicity of compound was tested against P-388 cell line (mouse leukemia) after incubation for 24 hour. The series is classed as functional, cell-based. The note with it: P388, 24 h.
Series [17] concerns HMEC. As to the kind of experiment: Cytotoxicity of compound was tested against HMEC cell line (human mamm epithelial cells) after incubation for 72 hour. The series is classed as functional, cell-based.
Series [18] is described as follows: Lethal dose of compound required when administered BALB C mice. It counts as toxicity. To be noted: mouse, in vivo.
Series [19] deals with SK-MEL-28. As to the kind of experiment: Cytotoxicity of compound was tested against SK-Mel-28 cell line (melanoma) after incubation for 72 hour. The series is classed as functional, cell-based. The note with it: Homo sapiens, SK-MEL-28, 72 h.
Series [20] deals with HL-60. As to the kind of experiment: Cytotoxicity of compound was tested against HL-60 cell line (promyelocytic leukemia) after incubation for 72 hour. It counts as functional, cell-based. The note with it: Homo sapiens, HL-60, 72 h.
In series [21] the test system is HL-60. Briefly: Cytotoxicity of compound was tested against HL-60 cell line (promyelocytic leukemia) after incubation for 24 hour. It counts as functional, cell-based. The note with it: Homo sapiens, HL-60, 24 h.

`COc1cccc2c1C(=O)c1c(O)c3c(c(O)c1C2=O)C[C@@](O)(C(C)=O)C[C@@H]3O[C@H]1C[C@H](N)[C@H](O)[C@H](C)O1.Cl` [DAUNORUBICIN HYDROCHLORIDE]: the pIC50 with SK-MEL-28 [1] was 5.80; in the series on NHDF [2] it was 6.72; with MCF7 [3] it was 4.87; in the series with MCF7 [4], 6.11; in the series on CAPAN-1 [5], 6.41; in the series on CAPAN-1 [6], 5.51. The pIC50 was 6.41 with HMEC [7]; 6.41 in the series on OVCAR-3 [8]; 6.41 with CHO [9]; 6.45 in the series with HT-29 [10]; 6.54 in the series on OVCAR-3 [11]; 6.53 in the series on CHO [12]. Moreover, the negative logarithm of the IC50 (pIC50) with UCLA P-3 is 6.14; in the series on NHDF [13] it was 6.39; with P388 [14] it was more than 7.01; with HT-29 [15] it was 6.11; with MOLT-4, 9.00; in the series with P388 [16] it was 6.41. Besides, the negative-log IC50 (pIC50) in the series on HMEC [17] is more than 7.01; in the series on SK-MEL-28 [19], 5.85; in the series with HL-60 [20], 7.01; in the series with HL-60 [21], more than 7.01. Further, in series [18], the LD50 was 15 mg/kg.
